Legend:
Experiment in all cases: stopped-flow CO2 hydration assay
Format in all cases: biochemical
Details in all cases: read-out: Topiramate; mean of […] assays, errors […]
[1] = target: T1, hCA XIV (Homo sapiens, UniProt Q9ULX7)
T1 construct: gene CA14

[2] = target: T2, hCA VI (Homo sapiens, UniProt P23280)
T2 construct: gene CA6

[3] = target: T3, hCA XIII (Homo sapiens, UniProt Q8N1Q1)
T3 construct: gene CA13; cytosolic isoform

[4] = target: T4, hCA IX (Homo sapiens, UniProt Q16790)
T4 construct: gene CA9; tumor-associated isoform

T2 sequence (P23280 18-308): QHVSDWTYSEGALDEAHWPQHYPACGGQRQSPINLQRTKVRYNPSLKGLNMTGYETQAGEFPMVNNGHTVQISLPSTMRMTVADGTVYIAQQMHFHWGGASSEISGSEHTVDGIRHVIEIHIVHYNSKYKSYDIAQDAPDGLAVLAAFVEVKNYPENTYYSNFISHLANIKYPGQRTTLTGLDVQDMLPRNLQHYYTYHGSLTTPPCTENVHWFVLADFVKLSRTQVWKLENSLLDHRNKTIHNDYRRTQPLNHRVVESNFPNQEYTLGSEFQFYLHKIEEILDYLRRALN
T1 sequence (Q9ULX7 16-290 limits assumed): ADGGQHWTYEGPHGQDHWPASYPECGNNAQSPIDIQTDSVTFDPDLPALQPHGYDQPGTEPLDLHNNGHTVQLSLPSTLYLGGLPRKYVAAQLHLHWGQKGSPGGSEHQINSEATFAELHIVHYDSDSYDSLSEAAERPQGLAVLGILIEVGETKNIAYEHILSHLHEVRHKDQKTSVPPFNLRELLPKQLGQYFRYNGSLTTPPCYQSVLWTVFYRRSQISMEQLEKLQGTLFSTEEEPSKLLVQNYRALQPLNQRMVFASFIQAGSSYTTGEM
T3 sequence (Q8N1Q1 whole entry, canonical isoform): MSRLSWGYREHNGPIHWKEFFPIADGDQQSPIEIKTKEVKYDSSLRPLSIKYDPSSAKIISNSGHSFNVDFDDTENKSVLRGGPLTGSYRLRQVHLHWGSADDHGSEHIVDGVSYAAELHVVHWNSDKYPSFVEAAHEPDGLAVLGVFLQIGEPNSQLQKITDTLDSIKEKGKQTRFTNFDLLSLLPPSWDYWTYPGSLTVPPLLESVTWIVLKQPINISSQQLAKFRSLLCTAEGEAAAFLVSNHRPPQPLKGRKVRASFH

Structure (SMILES): CC1(C)O[C@@H]2[C@@H](CO[C@@]3(COS(N)(=O)=O)OC(C)(C)O[C@@H]23)O1 [Topiramate]
- Ki [1]: 1460 nM
- Ki [2]: 45 nM
- Ki [3]: 47 nM
